What all share (assay type): cell-based
The test system of assay [1] is caspase 3/7 in PLC/PRF/5 cells. Kind of assay: Caspase Glo 3/7 activity assay in PLC/PRF/5 cells.
For another assay, the system named is MDA-MB-231. Put plainly: Cell viability in breast cancer cell lines. To be noted: Homo sapiens; MDA-MB-231 (Mesenchymal-like), 72 hours; read-out: CTG and Alamar Blue Assay IC50. An excerpt:
(§1) Tables 5 and 6 show assessment of in vitro efficacy of I-3 in a panel of breast cancer cell lines.
On the technique in general: Resazurin is reduced to fluorescent resorufin, in cell work by metabolically active cells.

A further assay has as its system BT-549. Put plainly: Cell viability in breast cancer cell lines. The settings on record: Homo sapiens; BT-549 (Mesenchymal), 72 hours; read-out: CTG and Alamar Blue Assay IC50.
Source text: as §1

The subject of a further assay is T47D. Put plainly: Cell viability in breast cancer cell lines. To be noted: Homo sapiens; T47D (Ductal carcinoma), 72 hours; read-out: CTG and Alamar Blue Assay IC50.
Source text: as §1

Structures are written as SMILES.

`Nc1nccc(-c2c[nH]c3nccc(Oc4cccc(F)c4)c23)n1` [I-3, 4-(4-(3-fluorophenoxy)-1H-pyrrolo[2,3-b]pyridin-3-yl)pyrimidin-2-amine]: the “Caspase 3/7 activation (comparison)” value in assay [1] is reported as “greater activation of caspase 3/7 by 1-3 than by PF-06873600”. The 50% inhibitory concentration (IC50) turned out to be 2450 nM in assay [1] (Homo sapiens), 565 nM in the assay on MDA-MB-231, 765 nM in the assay on BT-549 and 55500 nM in the assay on T47D.

As usually defined, the IC50 is the midpoint of a concentration-inhibition curve.

The values above are taken from patent US20240261297A1, “ANTI-CDK INHIBITORS FOR CANCER TREATMENT” (St. John's Cancer Institute, priority 2021, published 2024).
